In ChEMBL document CHEMBL1201862, “PubChem BioAssay data set” (2004):
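Following 48 hours of exposure in 96-well plates, responses at five concentrations were used to interpolate endpoints linearly. At the GI50, growth is halved.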 Activity calls are given as the source filed them. No stated cut-off is given here; in the data, active = GI50 up to about 1.1 µM and inactive = higher. Non-standard residues stand in square brackets, D forms with d. Residues, ends and D or L forms follow the SMILES beside them. *: point of attachment. Phe(4-NO2) = N[CH](Cc1ccc([N+](=O)[O-])cc1)C(=O)O; Boc = CC(C)(C)OC(=O)*

How the values were obtained:
Experiment in all cases: NCI anticancer screen, dose series, 48 h
SK-MEL-28 = tested on: SK-MEL-28
EKVX = tested on: EKVX
OVCAR-5 = tested on: OVCAR-5
HT-29 = tested on: HT-29
NCI-H226 = tested on: NCI-H226
HCT-15 = tested on: HCT-15
HOP-92 = tested on: HOP-92
IGROV-1 = tested on: IGROV-1
SF-295 = tested on: SF-295
OVCAR-3 = tested on: OVCAR-3
A549 = tested on: A549
HCT-116 = tested on: HCT-116
K562 = tested on: K562
CCRF-CEM = tested on: CCRF-CEM
UO-31 = tested on: UO-31
UACC-62 = tested on: UACC-62
OVCAR-4 = tested on: OVCAR-4
MOLT-4 = tested on: MOLT-4
CAKI-1 = tested on: CAKI-1
M14 = tested on: M14

| SMILES | GI50 (SK-MEL-28) | GI50 (EKVX) | GI50 (OVCAR-5) | GI50 (HT-29) | GI50 (NCI-H226) | GI50 (HCT-15) | GI50 (HOP-92) | GI50 (IGROV-1) | GI50 (SF-295) | GI50 (OVCAR-3) | GI50 (A549) | GI50 (HCT-116) | GI50 (K562) | GI50 (CCRF-CEM) | GI50 (UO-31) | GI50 (UACC-62) | GI50 (OVCAR-4) | GI50 (MOLT-4) | GI50 (CAKI-1) | GI50 (M14) |
| --- | --- | --- | --- | --- | --- | --- | --- | --- | --- | --- | --- | --- | --- | --- | --- | --- | --- | --- | --- | --- |
| CCCC(=O)c1c(NOC2OCC(OC(C)=O)C(OC(C)=O)C2OC(C)=O)nc(OC)n(C)c1=O (stereo not given) | > 100 µM (inactive) | > 100 µM (inactive) | > 100 µM (inactive) | > 100 µM (inactive) | > 100 µM (inactive) | > 100 µM | > 100 µM (inactive) | > 100 µM (inactive) | > 100 µM (inactive) | > 100 µM (inactive) | > 100 µM (inactive) | > 100 µM (inactive) | 17.4 µM (inactive) | 3.25 µM (inactive) | > 100 µM (inactive) | > 100 µM (inactive) | > 100 µM (inactive) | > 100 µM (inactive) | > 100 µM (inactive) | > 100 µM (inactive) |
| COc1cc2c(cc1OC)C1(c3ccccc3)CN(C2)Cc2cc(OC)c(OC)cc21 | > 100 µM (inactive) | 55.5 µM (inactive) | 35.6 µM (inactive) | 29 µM (inactive) | 26.7 µM (inactive) | 24.3 µM | 32.6 µM (inactive) | 35.2 µM (inactive) | 32.6 µM (inactive) | 54.6 µM (inactive) | 46.3 µM (inactive) | 24.9 µM (inactive) | 29.1 µM (inactive) | 15.6 µM (inactive) | 80.9 µM (inactive) | 32.3 µM (inactive) | 23.3 µM (inactive) | 25.5 µM (inactive) | 40 µM (inactive) | 23.9 µM (inactive) |
| O=C1OI(C#Cc2ccccc2)c2ccccc21 | 5.48 µM (inactive) | 2.76 µM (inactive) | 5.82 µM (inactive) | 3.94 µM (inactive) | 5.26 µM (inactive) | 3.18 µM | 1.88 µM (inactive) | 2.14 µM (inactive) | 13.5 µM (inactive) | 2.64 µM (inactive) | 8.65 µM (inactive) | 2.24 µM (inactive) | 2.15 µM (inactive) | 0.355 µM (active) | 4.13 µM (inactive) | 5.04 µM (inactive) | 3.93 µM (inactive) | 1.63 µM (inactive) | 2.61 µM (inactive) | 4.38 µM (inactive) |
| CCN(CC)CCC(=O)/C=C/c1ccc(C)cc1 | 14.8 µM (inactive) | 17.1 µM (inactive) | 18.6 µM (inactive) | 15.1 µM (inactive) | 17.1 µM (inactive) | 12.5 µM | 19.2 µM (inactive) | 15.3 µM (inactive) | 18.1 µM (inactive) | 16.7 µM (inactive) | 18.8 µM (inactive) | 13.4 µM (inactive) | 19.5 µM (inactive) | 10.1 µM (inactive) | 16.2 µM (inactive) | 16.6 µM (inactive) | 18.4 µM (inactive) | 11.7 µM (inactive) | 1.83 µM (inactive) | 13.7 µM (inactive) |
| COc1ccc(N2C(=O)C3c4[nH]c5ccccc5c4C4CCCCC4C3C2=O)cc1 (stereo not given) | 10.6 µM (inactive) | 17.3 µM (inactive) | > 100 µM (inactive) | 23.4 µM (inactive) | 27.4 µM (inactive) | > 100 µM | 18.2 µM (inactive) | 24.7 µM (inactive) | 11.3 µM (inactive) | > 100 µM (inactive) | 18.3 µM (inactive) | 7.11 µM (inactive) | 18.2 µM (inactive) | 11.9 µM (inactive) | 26.4 µM (inactive) | 10.3 µM (inactive) | 5.4 µM (inactive) | 16.1 µM (inactive) | 51.3 µM (inactive) | 18 µM (inactive) |
| CC1(C)OC2COC3(CNO)OC(C)(C)OC3C2O1 (stereo not given) | > 100 µM (inactive) | > 100 µM (inactive) | > 100 µM (inactive) | > 100 µM (inactive) | > 100 µM (inactive) | > 100 µM | 65.8 µM (inactive) | > 100 µM (inactive) | > 100 µM (inactive) | > 100 µM (inactive) | > 100 µM (inactive) | > 100 µM (inactive) | > 100 µM (inactive) | > 100 µM (inactive) | > 100 µM (inactive) | > 100 µM (inactive) | > 100 µM (inactive) | > 100 µM (inactive) | > 100 µM (inactive) | > 100 µM (inactive) |
| CC(=O)Nc1ccc(/C=c2\sc3nnc(CCC(=O)Nc4ccccc4Cl)n3c2=O)cc1 | 23 µM (inactive) | > 100 µM (inactive) | > 100 µM (inactive) | 54.2 µM (inactive) | 23.4 µM (inactive) | 44.6 µM | 27.4 µM (inactive) | > 100 µM (inactive) | 18.1 µM (inactive) | 21.6 µM (inactive) | 30.4 µM (inactive) | 37.7 µM (inactive) | 24.2 µM (inactive) | 18.3 µM (inactive) | > 100 µM (inactive) | 23.9 µM (inactive) | 20.6 µM (inactive) | 19.4 µM (inactive) | > 100 µM (inactive) | 16.7 µM (inactive) |
| O=C(O)CC(O)(c1ccccc1C(=O)O)c1cccc2ccccc12 (stereo not given) | > 100 µM (inactive) | > 100 µM (inactive) | > 100 µM (inactive) | > 100 µM (inactive) | > 100 µM (inactive) | > 100 µM | > 100 µM (inactive) | > 100 µM (inactive) | > 100 µM (inactive) | > 100 µM (inactive) | > 100 µM (inactive) | > 100 µM (inactive) | > 100 µM (inactive) | > 100 µM (inactive) | > 100 µM (inactive) | > 100 µM (inactive) | > 100 µM (inactive) | > 100 µM (inactive) | > 100 µM (inactive) | > 100 µM (inactive) |
| Nc1nn2c(nc(N)c3c(N)n[nH]c32)c1/N=N\c1ccc(Br)cc1 | 7.73 µM (inactive) | > 100 µM (inactive) | 23.7 µM (inactive) | 55.8 µM (inactive) | 55 µM (inactive) | > 91.8 µM | 3.71 µM (inactive) | 81.8 µM (inactive) | > 100 µM (inactive) | 32.6 µM (inactive) | > 100 µM (inactive) | 53.8 µM (inactive) | 2.16 µM (inactive) | 2.1 µM (inactive) | > 100 µM (inactive) | > 100 µM (inactive) | 16.4 µM (inactive) | 3.53 µM (inactive) | > 100 µM (inactive) | 5.86 µM (inactive) |
| COC(=O)CCC(NC(=O)OC(C)(C)C)C(=O)NC(Cc1ccc([N+](=O)[O-])cc1)C(=O)NC(CCC(=O)OC)C(=O)OC (stereo not given) (Boc-Glu(OMe)-[Phe(4-NO2)]-Glu(OMe)-OMe; configuration not given here) | > 100 µM (inactive) | > 100 µM (inactive) | > 100 µM (inactive) | 87.3 µM (inactive) | 74.8 µM (inactive) | > 100 µM | > 100 µM (inactive) | > 100 µM (inactive) | > 100 µM (inactive) | > 100 µM (inactive) | > 100 µM (inactive) | > 100 µM (inactive) | 35.4 µM (inactive) | 12.3 µM (inactive) | > 100 µM (inactive) | > 100 µM (inactive) | > 100 µM (inactive) | 24.9 µM (inactive) | > 100 µM (inactive) | > 100 µM (inactive) |
